From PMC4685510, “A Cell Biologist’s Field Guide to Aurora Kinase Inhibitors” (Frontiers in Oncology, 2015)

Columns and labels:
Assay in all cases: biochemical
Assay type in all cases: biochemical
[1] = target: 363 human kinases (including Aurora A/B/C) (Homo sapiens, UniProt P31749); conditions: AKT1, [ATP] 100 µM; for remaining activity at 0.1 µM: 100 nM; for remaining activity at 0.1 µM / remaining activity at 0.5 µM: read-out: % Enzyme Activity (relative to DMSO controls)
Excerpt: (§1) However, the Aurora A/B selectivity ratios derived from our in vitro and in vivo data can be compared to prioritize inhibitors.

[2] = target: 363 human kinases (including Aurora A/B/C) (Homo sapiens, UniProt Q9NY57); conditions: STK32B/YANK2; for remaining activity at 0.1 µM: 100 nM; for remaining activity at 0.1 µM / remaining activity at 0.5 µM: read-out: % Enzyme Activity (relative to DMSO controls)
Excerpt: as §1

[3] = target: 363 human kinases (including Aurora A/B/C) (Homo sapiens, UniProt P49841); conditions: GSK3b; for remaining activity at 0.1 µM: 100 nM; for remaining activity at 0.1 µM / remaining activity at 0.5 µM: read-out: % Enzyme Activity (relative to DMSO controls)
Excerpt: as §1

[4] = target: T1, 363 human kinases (including Aurora A/B/C) (Homo sapiens, UniProt O43318); conditions: TAK1; for remaining activity at 0.1 µM: 100 nM; for remaining activity at 0.1 µM / remaining activity at 0.5 µM: read-out: % Enzyme Activity (relative to DMSO controls)
T1 sequence (O43318 1-606): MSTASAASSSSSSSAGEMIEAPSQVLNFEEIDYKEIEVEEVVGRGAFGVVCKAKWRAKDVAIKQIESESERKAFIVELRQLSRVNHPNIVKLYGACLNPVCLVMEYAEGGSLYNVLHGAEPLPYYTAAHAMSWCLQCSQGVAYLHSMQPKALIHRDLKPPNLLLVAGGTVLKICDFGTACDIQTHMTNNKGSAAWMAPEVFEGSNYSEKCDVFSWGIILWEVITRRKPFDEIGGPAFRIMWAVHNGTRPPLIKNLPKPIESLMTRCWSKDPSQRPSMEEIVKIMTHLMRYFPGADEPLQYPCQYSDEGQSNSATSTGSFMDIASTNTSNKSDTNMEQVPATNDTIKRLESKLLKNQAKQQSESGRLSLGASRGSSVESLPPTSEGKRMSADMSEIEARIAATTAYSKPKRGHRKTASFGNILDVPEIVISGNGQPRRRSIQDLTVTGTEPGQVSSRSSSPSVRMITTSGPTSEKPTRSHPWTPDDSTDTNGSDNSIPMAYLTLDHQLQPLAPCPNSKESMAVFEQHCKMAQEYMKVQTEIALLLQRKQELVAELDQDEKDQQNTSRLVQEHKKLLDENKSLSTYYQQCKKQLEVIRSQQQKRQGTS
Excerpt: as §1

[5] = target: T2, 363 human kinases (including Aurora A/B/C) (Homo sapiens, UniProt P51817); conditions: PRKX; for remaining activity at 0.1 µM: 100 nM; for remaining activity at 0.1 µM / remaining activity at 0.5 µM: read-out: % Enzyme Activity (relative to DMSO controls)
T2 sequence (P51817 1-358): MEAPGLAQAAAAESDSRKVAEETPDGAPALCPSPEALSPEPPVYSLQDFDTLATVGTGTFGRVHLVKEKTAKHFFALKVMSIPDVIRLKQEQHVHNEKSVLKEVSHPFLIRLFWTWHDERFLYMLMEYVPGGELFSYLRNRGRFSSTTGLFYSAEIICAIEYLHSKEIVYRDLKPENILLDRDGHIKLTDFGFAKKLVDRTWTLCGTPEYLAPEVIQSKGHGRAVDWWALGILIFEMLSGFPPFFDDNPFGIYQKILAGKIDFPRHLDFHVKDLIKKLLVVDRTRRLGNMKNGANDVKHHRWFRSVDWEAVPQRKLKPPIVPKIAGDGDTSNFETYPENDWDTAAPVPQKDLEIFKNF
Excerpt: as §1

[6] = target: 363 human kinases (including Aurora A/B/C) (Homo sapiens, UniProt Q9H0K1); conditions: SIK2; for remaining activity at 0.1 µM: 100 nM; for remaining activity at 0.1 µM / remaining activity at 0.5 µM: read-out: % Enzyme Activity (relative to DMSO controls)
Excerpt: as §1

[7] = target: 363 human kinases (including Aurora A/B/C) (Homo sapiens, UniProt P49674); conditions: CK1epsilon, [ATP] 50 µM; for remaining activity at 0.1 µM: 100 nM; for remaining activity at 0.1 µM / remaining activity at 0.5 µM: read-out: % Enzyme Activity (relative to DMSO controls)
Excerpt: as §1

[8] = target: T3, 363 human kinases (including Aurora A/B/C) (Homo sapiens, UniProt Q12852); conditions: DLK/MAP3K12, [ATP] 30 µM; for remaining activity at 0.1 µM: 100 nM; for remaining activity at 0.1 µM / remaining activity at 0.5 µM: read-out: % Enzyme Activity (relative to DMSO controls)
T3 sequence (Q12852 1-859): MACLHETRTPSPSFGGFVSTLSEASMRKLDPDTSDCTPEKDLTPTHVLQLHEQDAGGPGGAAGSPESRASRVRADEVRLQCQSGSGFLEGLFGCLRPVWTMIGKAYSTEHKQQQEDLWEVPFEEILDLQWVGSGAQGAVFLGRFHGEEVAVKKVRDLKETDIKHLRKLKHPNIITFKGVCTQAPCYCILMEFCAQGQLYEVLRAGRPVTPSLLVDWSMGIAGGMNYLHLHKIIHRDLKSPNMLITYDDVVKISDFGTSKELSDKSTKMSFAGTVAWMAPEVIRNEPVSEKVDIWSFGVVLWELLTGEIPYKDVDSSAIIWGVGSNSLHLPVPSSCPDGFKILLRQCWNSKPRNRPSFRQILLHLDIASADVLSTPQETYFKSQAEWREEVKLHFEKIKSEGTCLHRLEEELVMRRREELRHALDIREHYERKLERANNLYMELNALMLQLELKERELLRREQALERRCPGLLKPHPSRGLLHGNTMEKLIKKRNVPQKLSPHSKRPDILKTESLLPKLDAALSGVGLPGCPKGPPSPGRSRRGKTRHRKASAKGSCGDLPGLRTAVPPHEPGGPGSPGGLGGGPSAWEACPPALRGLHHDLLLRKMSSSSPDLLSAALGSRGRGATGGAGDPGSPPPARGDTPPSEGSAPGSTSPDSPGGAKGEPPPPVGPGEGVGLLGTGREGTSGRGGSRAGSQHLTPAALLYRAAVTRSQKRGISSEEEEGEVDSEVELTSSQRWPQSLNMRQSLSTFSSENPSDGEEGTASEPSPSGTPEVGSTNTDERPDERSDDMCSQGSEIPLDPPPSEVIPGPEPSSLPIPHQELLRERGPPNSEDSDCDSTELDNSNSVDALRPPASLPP
Excerpt: as §1

363 human kinases (including Aurora A/B/C) (Homo sapiens, UniProt P31749), sequence (P31749 whole entry): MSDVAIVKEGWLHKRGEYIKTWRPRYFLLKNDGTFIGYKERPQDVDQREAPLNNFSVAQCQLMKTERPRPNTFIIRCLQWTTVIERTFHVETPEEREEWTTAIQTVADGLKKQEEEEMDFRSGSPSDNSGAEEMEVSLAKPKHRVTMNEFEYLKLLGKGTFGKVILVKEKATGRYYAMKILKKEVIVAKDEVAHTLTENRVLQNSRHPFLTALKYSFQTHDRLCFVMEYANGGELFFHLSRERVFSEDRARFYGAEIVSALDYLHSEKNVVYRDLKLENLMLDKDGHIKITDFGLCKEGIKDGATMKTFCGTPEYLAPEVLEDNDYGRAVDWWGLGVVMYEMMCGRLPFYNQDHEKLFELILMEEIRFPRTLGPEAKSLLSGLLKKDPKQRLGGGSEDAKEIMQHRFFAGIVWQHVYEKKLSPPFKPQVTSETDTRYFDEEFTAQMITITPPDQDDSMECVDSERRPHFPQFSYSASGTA
363 human kinases (including Aurora A/B/C) (Homo sapiens, UniProt P49841), sequence (P49841 whole entry): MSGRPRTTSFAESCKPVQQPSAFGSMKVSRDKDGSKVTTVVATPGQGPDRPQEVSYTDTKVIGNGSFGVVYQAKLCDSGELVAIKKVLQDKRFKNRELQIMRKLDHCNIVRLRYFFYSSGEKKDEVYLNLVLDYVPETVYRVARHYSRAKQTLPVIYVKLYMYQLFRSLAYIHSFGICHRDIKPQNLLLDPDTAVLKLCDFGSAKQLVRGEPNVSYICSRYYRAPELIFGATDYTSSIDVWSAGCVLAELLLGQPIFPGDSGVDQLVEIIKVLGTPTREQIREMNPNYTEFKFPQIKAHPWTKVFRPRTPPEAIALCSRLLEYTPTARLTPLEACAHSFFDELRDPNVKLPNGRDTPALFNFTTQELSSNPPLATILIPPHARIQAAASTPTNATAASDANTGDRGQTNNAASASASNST
363 human kinases (including Aurora A/B/C) (Homo sapiens, UniProt Q9NY57), sequence (Q9NY57 whole entry): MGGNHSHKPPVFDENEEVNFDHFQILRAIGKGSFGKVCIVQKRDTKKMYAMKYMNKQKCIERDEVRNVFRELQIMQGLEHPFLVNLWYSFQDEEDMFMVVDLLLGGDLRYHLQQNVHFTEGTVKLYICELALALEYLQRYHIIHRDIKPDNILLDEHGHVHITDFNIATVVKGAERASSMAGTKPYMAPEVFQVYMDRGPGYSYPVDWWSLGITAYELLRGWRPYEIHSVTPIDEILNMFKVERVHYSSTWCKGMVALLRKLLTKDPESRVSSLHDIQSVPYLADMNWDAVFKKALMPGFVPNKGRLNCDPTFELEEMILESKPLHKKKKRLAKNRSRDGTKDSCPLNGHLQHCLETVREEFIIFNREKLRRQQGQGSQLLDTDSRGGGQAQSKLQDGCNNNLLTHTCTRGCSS
363 human kinases (including Aurora A/B/C) (Homo sapiens, UniProt Q9H0K1), sequence (Q9H0K1 whole entry): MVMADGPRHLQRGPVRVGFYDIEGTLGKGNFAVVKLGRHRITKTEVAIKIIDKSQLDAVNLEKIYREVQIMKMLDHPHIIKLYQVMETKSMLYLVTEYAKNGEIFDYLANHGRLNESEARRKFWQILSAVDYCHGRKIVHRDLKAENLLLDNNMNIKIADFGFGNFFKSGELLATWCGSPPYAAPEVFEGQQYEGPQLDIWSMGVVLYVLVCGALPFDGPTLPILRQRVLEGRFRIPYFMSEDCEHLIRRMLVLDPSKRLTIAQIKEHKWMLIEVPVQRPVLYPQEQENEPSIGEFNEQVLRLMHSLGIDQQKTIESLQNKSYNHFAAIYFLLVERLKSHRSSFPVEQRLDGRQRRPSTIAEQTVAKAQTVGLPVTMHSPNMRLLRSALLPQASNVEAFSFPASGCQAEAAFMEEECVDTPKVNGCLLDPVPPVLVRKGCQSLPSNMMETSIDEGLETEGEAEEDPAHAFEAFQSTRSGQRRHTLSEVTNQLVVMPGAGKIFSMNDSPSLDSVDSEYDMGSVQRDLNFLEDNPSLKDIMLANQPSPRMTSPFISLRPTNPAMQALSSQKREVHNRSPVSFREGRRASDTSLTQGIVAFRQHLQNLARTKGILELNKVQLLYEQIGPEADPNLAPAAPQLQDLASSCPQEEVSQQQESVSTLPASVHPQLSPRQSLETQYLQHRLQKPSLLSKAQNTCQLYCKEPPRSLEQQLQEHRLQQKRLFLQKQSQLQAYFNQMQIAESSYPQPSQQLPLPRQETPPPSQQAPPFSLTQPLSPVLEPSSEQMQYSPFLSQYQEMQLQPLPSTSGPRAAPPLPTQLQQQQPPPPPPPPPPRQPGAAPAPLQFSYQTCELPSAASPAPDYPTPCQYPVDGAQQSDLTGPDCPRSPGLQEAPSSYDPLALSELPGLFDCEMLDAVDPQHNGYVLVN
363 human kinases (including Aurora A/B/C) (Homo sapiens, UniProt P49674), sequence (P49674 whole entry): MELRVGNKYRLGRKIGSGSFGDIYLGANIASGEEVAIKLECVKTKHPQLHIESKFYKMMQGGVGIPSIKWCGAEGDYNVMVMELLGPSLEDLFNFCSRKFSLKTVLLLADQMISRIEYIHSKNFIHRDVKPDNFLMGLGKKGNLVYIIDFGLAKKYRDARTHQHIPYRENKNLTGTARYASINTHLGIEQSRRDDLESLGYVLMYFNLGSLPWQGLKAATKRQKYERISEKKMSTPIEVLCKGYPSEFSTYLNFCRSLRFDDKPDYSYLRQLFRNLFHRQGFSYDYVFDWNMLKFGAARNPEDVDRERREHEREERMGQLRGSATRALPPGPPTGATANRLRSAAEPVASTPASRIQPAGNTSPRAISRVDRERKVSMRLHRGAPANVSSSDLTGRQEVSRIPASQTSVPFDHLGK

Q: Which results are given for `CCn1cc(-c2ccnc3[nH]c(-c4cccc(CN(C)C)c4)cc23)c(-c2ccc(NC(=O)N(C)C)cc2)n1` [GSK1070916]?
A: remaining activity at 0.1 µM [1]: 105%; remaining activity at 0.1 µM [2]: 93.6%; remaining activity at 0.1 µM [3]: 102%; remaining activity at 0.1 µM [4]: 99%; remaining activity at 0.1 µM [5]: 92.6%; remaining activity at 0.1 µM [6]: 40%; remaining activity at 0.1 µM [7]: 95.8%; remaining activity at 0.1 µM [8]: 80.4%

Q: What does the source list for `O=C(c1cccc(Cl)c1F)N1CCN(Cc2cccc(Nc3nccs3)n2)CC1` [MK-8745]?
A: % Enzyme Activity (relative to DMSO controls) ([1]; 500 nM): 95.86%; remaining activity at 0.5 µM ([1]; 500 nM): 97.4%; % Enzyme Activity (relative to DMSO controls) ([2]; 500 nM): 95.67%; remaining activity at 0.5 µM ([2]; 500 nM): 97.9%; % Enzyme Activity (relative to DMSO controls) ([3]; 500 nM): 28.78%; remaining activity at 0.5 µM ([3]; 500 nM): 29.6%; % Enzyme Activity (relative to DMSO controls) ([4]; 500 nM): 93.95%; remaining activity at 0.5 µM ([4]; 500 nM): 96.6%; % Enzyme Activity (relative to DMSO controls) ([5]; 500 nM): 95.41%; remaining activity at 0.5 µM ([5]; 500 nM): 96.5%; % Enzyme Activity (relative to DMSO controls) ([6]; 500 nM): 96.62%; remaining activity at 0.5 µM ([6]; 500 nM): 98.7%; % Enzyme Activity (relative to DMSO controls) ([7]; 500 nM): 93.98%; remaining activity at 0.5 µM ([7]; 500 nM): 94.9%; % Enzyme Activity (relative to DMSO controls) ([8]; 500 nM): 53.85%; remaining activity at 0.5 µM ([8]; 500 nM): 59.2%

Q: How did the remaining activity at 0.1 µM [1] turn out when `O=C(O)[C@]1(Cc2cccc(Nc3nccs3)n2)CC[C@@H](Oc2cccc(Cl)c2F)CC1` [MK-5108] was run?
A: 116%

Q: What about the remaining activity at 0.5 µM ([1]; 500 nM) of the same compound?
A: 102%

Q: What about the remaining activity at 0.1 µM [2] of the same compound?
A: 95.8%

Q: And the remaining activity at 0.5 µM ([2]; 500 nM)?
A: 95.7%

Q: What about the remaining activity at 0.1 µM [3] of the same compound?
A: 37.7%

Q: What about the remaining activity at 0.5 µM ([3]; 500 nM) of the same compound?
A: 6.95%

Q: And the remaining activity at 0.1 µM [4]?
A: 93.8%

Q: What about the remaining activity at 0.5 µM ([4]; 500 nM) of the same compound?
A: 79.1%

Q: What about the remaining activity at 0.1 µM [5] of the same compound?
A: 99.8%

Q: What about the remaining activity at 0.5 µM ([5]; 500 nM) of the same compound?
A: 97.6%

Q: And the remaining activity at 0.1 µM [6]?
A: 96.5%

Q: And the remaining activity at 0.5 µM ([6]; 500 nM)?
A: 93.3%

Q: And the remaining activity at 0.1 µM [7]?
A: 98.1%

Q: And the remaining activity at 0.5 µM ([7]; 500 nM)?
A: 91.5%

Q: What about the remaining activity at 0.1 µM [8] of the same compound?
A: 72.1%

Q: What about the remaining activity at 0.5 µM ([8]; 500 nM) of the same compound?
A: 23.1%
